Source: PubChem BioAssay (NCI)
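Grown in 96-well plates, cells were treated for 48 hours with each compound at five concentrations. Insufficient inhibition: endpoint recorded as highest concentration tested. The concentration for 50% growth inhibition is given as GI50. Definition used: TGI = concentration required for complete inhibition of growth.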

Columns and labels:
Assay in all cases: DTP human tumour cell line panel, 48 h
ACHN renal = tested on: ACHN renal
CAKI-1 renal = tested on: CAKI-1 renal
CCRF-CEM leukemia = tested on: CCRF-CEM leukemia
DU-145 prostate = tested on: DU-145 prostate
EKVX NSCLC = tested on: EKVX NSCLC
HCT-15 colon = tested on: HCT-15 colon
HT29 colon = tested on: HT29 colon
LOX IMVI melanoma = tested on: LOX IMVI melanoma
M14 melanoma = tested on: M14 melanoma
NCI/ADR-RES ovarian = tested on: NCI/ADR-RES ovarian
OVCAR-8 ovarian = tested on: OVCAR-8 ovarian
SF-295 CNS = tested on: SF-295 CNS
SK-MEL-2 melanoma = tested on: SK-MEL-2 melanoma
SK-OV-3 ovarian = tested on: SK-OV-3 ovarian
SNB-75 CNS = tested on: SNB-75 CNS
SR leukemia = tested on: SR leukemia
SW-620 colon = tested on: SW-620 colon
T-47D breast = tested on: T-47D breast

Compound	TGI (ACHN renal)	TGI (CAKI-1 renal)	TGI (CCRF-CEM leukemia)	TGI (DU-145 prostate)	TGI (EKVX NSCLC)	TGI (HCT-15 colon)	TGI (HT29 colon)	TGI (LOX IMVI melanoma)	TGI (M14 melanoma)	TGI (NCI/ADR-RES ovarian)	TGI (OVCAR-8 ovarian)	TGI (SF-295 CNS)	TGI (SK-MEL-2 melanoma)	TGI (SK-OV-3 ovarian)	TGI (SNB-75 CNS)	TGI (SR leukemia)	TGI (SW-620 colon)	TGI (T-47D breast)	GI50 (EKVX NSCLC)	GI50 (SK-MEL-2 melanoma)
COc1ccc(C)cc1NC(=S)N/N=C/c1ccco1	> 100 µM	> 100 µM	> 100 µM	> 100 µM	64.3 µM	> 100 µM	> 100 µM	> 100 µM	> 100 µM	> 100 µM	> 100 µM	> 100 µM	39.9 µM	> 100 µM	> 100 µM	> 100 µM	> 100 µM	> 100 µM		
CCOC(=O)C1=C(C)N(Cc2ccccc2)C2(O)C=CC(=O)C3C(=O)N(c4ccccc4)C(=O)C132 (stereo not drawn)	3.25 µM	4.17 µM	5.51 µM	7.63 µM	22.5 µM	5.14 µM	3.33 µM	3.43 µM	3.92 µM	10.6 µM	3.32 µM	13.7 µM	3.98 µM	19.3 µM		2.88 µM		9.27 µM		
C=C1C(=O)OC2/C=C(\CO)C3OC3C3OC3(C)CC(OC(=O)/C(=C/C)COC(C)=O)C12 (stereo not drawn)	9.68 µM	4.67 µM		32.3 µM	9.58 µM	6.47 µM	15.3 µM	3.24 µM	6.64 µM	41.8 µM	6.22 µM	46.7 µM	6.78 µM	45.7 µM	23 µM		2.8 µM	9.7 µM		
COc1cccc(/C=N/[N+](C)(C)C)c1O	> 10 µM	> 10 µM	> 10 µM	> 10 µM	> 10 µM	> 10 µM	> 10 µM	> 10 µM	> 10 µM	> 10 µM	> 10 µM	> 10 µM	> 10 µM	> 10 µM	> 10 µM		> 10 µM	> 10 µM		
O=C1Nc2ccccc2C1(O)Cc1ccccn1 (stereo not drawn)	> 100 µM	> 100 µM	> 100 µM	> 100 µM	> 100 µM	> 100 µM	> 100 µM	> 100 µM	> 100 µM	> 100 µM	> 100 µM	> 100 µM	> 100 µM	> 100 µM	> 100 µM	> 100 µM	> 100 µM	> 100 µM		
O=c1c2cc([N+](=O)[O-])ccc2[nH]n1Cc1ccccc1Cl	> 100 µM	> 100 µM	> 100 µM	> 100 µM	> 100 µM	> 100 µM	> 100 µM	> 100 µM	> 100 µM	> 100 µM	> 100 µM	> 100 µM			> 100 µM	> 100 µM	> 100 µM			
CSc1nc2c(ncn2C2OC(CO)C(O)C(O)C2O)c(=O)n1C (stereo not drawn)			> 100 µM		> 100 µM	> 100 µM	> 100 µM	> 100 µM		> 100 µM	> 100 µM	> 100 µM	> 100 µM	> 100 µM	> 100 µM		> 100 µM			
COc1cc2c(cc1OCCCN1CCOCC1)N=C[C@@H]1CCCN1C2=O	92 µM	26.3 µM	25.3 µM	76.9 µM	47.1 µM	74.2 µM	47.7 µM	> 100 µM	29.1 µM	> 100 µM	98.3 µM	42.1 µM	> 100 µM	87.5 µM		39.8 µM	13.8 µM			
Nc1nc2cc(COc3ccc(C(=O)O)cc3)ccc2nc1-c1ccccc1	> 10 µM	> 10 µM	> 10 µM	> 10 µM	> 10 µM	> 10 µM	> 10 µM	> 10 µM	> 10 µM			> 10 µM	> 10 µM	> 10 µM	> 10 µM	> 10 µM	> 10 µM	> 10 µM		
O=C1C=CC2(C=C1)O[C@H](CCc1ccccc1)[C@@H](CCc1ccccc1)O2	> 100 µM	> 100 µM	> 100 µM	> 100 µM	83.3 µM	> 100 µM	> 100 µM	27.3 µM	> 100 µM	> 100 µM	> 100 µM	> 100 µM	> 100 µM	> 100 µM	> 100 µM	> 100 µM	> 100 µM	> 100 µM		
O=C(O)C(C1NCCS1)N1C(=O)c2ccccc2C1=O (stereo not drawn)	> 100 µM	> 100 µM	> 100 µM	> 100 µM	> 100 µM	> 100 µM	> 100 µM	> 100 µM	> 100 µM	> 100 µM	> 100 µM	> 100 µM	> 100 µM	> 100 µM	> 100 µM	> 100 µM	> 100 µM	> 100 µM		
O=C1Sc2sc(=S)sc2SC1c1ccccc1 (stereo not drawn)		> 100 µM	91.5 µM		> 100 µM	36.8 µM	> 100 µM	> 82.6 µM		> 100 µM	> 100 µM	> 100 µM	> 100 µM	> 100 µM	> 81.4 µM		39.3 µM			
Nc1nc(N)c2ncn(Cc3ccccc3CO)c2n1	> 100 µM	> 100 µM	> 100 µM	> 100 µM	> 100 µM	> 100 µM	> 100 µM	> 100 µM	> 100 µM	> 100 µM	> 100 µM	> 100 µM	> 100 µM	> 100 µM	> 100 µM	> 100 µM	> 100 µM	> 100 µM		
Cc1ccnn1CCc1ccc(Cl)cc1Cl	> 100 µM	> 100 µM	> 100 µM	> 100 µM	20.7 µM	> 100 µM	> 100 µM	> 100 µM	> 100 µM	> 100 µM	> 100 µM	52.9 µM		> 100 µM	> 100 µM	> 100 µM	> 100 µM	> 100 µM		
Cc1ccc(C(=O)c2[nH]c(NCc3ccccc3)c(C(=S)Nc3ccccc3)c2N)cc1	23.5 µM	27.5 µM	28.9 µM	27 µM	26.5 µM	4.33 µM	10.5 µM	3.97 µM	3.97 µM	8.51 µM	26.1 µM	17.2 µM	22.8 µM	8.04 µM	16.6 µM		5.19 µM	33.5 µM		
COc1cc2c(/C=C3/C(=O)Nc4cc(C)c(O)cc43)c(Cl)[nH]c2cc1C	17.9 µM	7.01 µM	2.02 µM	10.5 µM		13.5 µM	5.31 µM	35.5 µM	5.89 µM	12.8 µM	15.7 µM	5.07 µM	23.9 µM	8.32 µM	7.6 µM	2.05 µM	12.4 µM	18.2 µM		
C=C1C(=O)OC2/C=C(CO)/C=C\C3OC3(C)CC(OC(=O)/C(C)=C/COC(C)=O)C12 (stereo not drawn)	9.16 µM	10.9 µM		30.2 µM	12.8 µM	4.27 µM	7.39 µM	3.05 µM	5.64 µM	15.8 µM	7 µM	28.3 µM	7.88 µM	31.7 µM	20.7 µM	13.7 µM	3.24 µM	7.53 µM		
CS(C)(=O)=Nn1c(=O)n2n(c1=O)[C@H]1CC[C@@H]2C1	> 100 µM	> 100 µM	> 100 µM	> 100 µM	> 100 µM	> 100 µM	> 100 µM	> 100 µM	> 100 µM	> 100 µM	> 100 µM	> 100 µM	> 100 µM	> 100 µM	> 100 µM	> 100 µM	> 100 µM	> 100 µM		
O=C(c1ccsc1)c1nccc2c1cnc1ccccc12	> 100 µM	> 100 µM	> 100 µM	> 100 µM	88.4 µM	> 100 µM	> 100 µM	> 100 µM	> 100 µM	> 100 µM	> 100 µM	> 100 µM	> 100 µM	> 100 µM	88.2 µM		> 100 µM	> 100 µM		
COc1ccc2[nH]c(=O)cc(C)c2c1[N+](=O)[O-]	> 100 µM	> 100 µM	> 100 µM		> 100 µM	> 100 µM	> 100 µM	> 100 µM	> 100 µM		> 100 µM	> 100 µM	> 100 µM	> 100 µM	55.7 µM		> 100 µM			
COc1cnc2oc3ccc(O)cc3c2c1-c1ccccc1	> 100 µM	> 100 µM	> 100 µM	> 100 µM	> 100 µM	> 100 µM	> 100 µM	> 100 µM	39.8 µM	> 100 µM	> 100 µM	> 100 µM	> 100 µM	> 100 µM	> 100 µM		> 100 µM	> 100 µM		
O=C(N/N=C/c1cc(Cl)cc(Cl)c1[O-])c1ccccc1O.O=C(N/N=C/c1cc(Cl)cc(Cl)c1[O-])c1ccccc1O.[Mn+2]	11.9 µM	4.33 µM			11.2 µM	14.1 µM		14.1 µM	2.51 µM		2.3 µM	11.8 µM	11.3 µM	3.58 µM	22.9 µM	0.832 µM	17.7 µM		0.861 µM	0.285 µM
COc1ccc(C(=O)c2[nH]c(Nc3cc(C)ccn3)c(C(=S)Nc3ccccc3)c2N)cc1	97.4 µM	> 100 µM		> 100 µM	> 100 µM	55.9 µM	39.4 µM	42.2 µM	42.5 µM	24.3 µM	52.4 µM	49.5 µM	24.2 µM	47 µM	50.9 µM	> 100 µM	71 µM	> 100 µM		
CC1=CC2=C(C=O)C(=O)[C@](C)(O)[C@@H](O)C2=CO1		> 100 µM	59.3 µM		> 100 µM	> 100 µM	> 100 µM	> 74.3 µM		> 100 µM	> 100 µM	> 100 µM	62.2 µM	76.3 µM	> 100 µM		> 77.6 µM			
CC(C)(C(=O)N(C(=O)N1CCN(c2ccccc2)CC1)S(=O)(=O)c1ccccc1)c1ccc(Cl)cc1	> 100 µM	> 100 µM	> 100 µM	> 100 µM	63.1 µM	> 100 µM	> 100 µM	> 100 µM	> 100 µM	> 100 µM	> 100 µM	> 100 µM	53.9 µM	> 100 µM	> 100 µM	> 100 µM	> 100 µM	> 100 µM		
COc1cc(C2c3cc4c(cc3[C@@H](Nc3cnc5ccccc5c3)C3COC(=O)[C@H]23)OCO4)cc(OC)c1O (stereo partly drawn)		1.78 µM	0.463 µM		9.09 µM	1.31 µM	4.2 µM			7.93 µM	5 µM	1.14 µM	3.58 µM	6.18 µM						
